Laboratory results taken from the NIST ThermoML archive (doi:10.1007/s10765-008-0491-0).

Assay: xn = mol fraction of the nth substance listed
Settings: 101 kPa, Liquid; for speed of sound: Sing-around technique in a fixed-path interferometer; for mass density: Vibrating tube method; for viscosity: Capillary tube (Ostwald / Ubbelohde) method

CC(C)CCCC(C)CCCC(C)CCCCC(C)CCCC(C)CCCC(C)C (stereo not drawn) [2,6,10,15,19,23-hexamethyltetracosane] + CCCCCCCCO
Settings | mass density, 293.15 K [kg/m3] | mass density, 303.15 K [kg/m3] | mass density, 308.15 K [kg/m3] | speed of sound, 293.15 K [m/s] | speed of sound, 303.15 K [m/s] | speed of sound, 308.15 K [m/s] | viscosity, 298.15 K [mPa·s] | viscosity, 303.15 K [mPa·s] | viscosity, 308.15 K [mPa·s]
x2 = 0 | 805.122 | 801.912 | 798.709 | 1381.9 | 1364.1 | 1346.5 | 28.26 | 22.09 | 17.77
x2 = 0.0596 | 805.175 | 801.944 | 798.711 | 1379.9 | 1362.1 | 1344.1 | 24.18 | 19.21 | 15.49
x2 = 0.1053 | 805.299 | 802.053 | 798.798 | 1378.5 | 1360.4 | 1343.1 | 21.92 | 17.59 | 14.21
x2 = 0.1563 | 805.499 | 802.234 | 798.947 | 1376.9 | 1359.3 | 1341.5 | 20.12 | 16.25 | 13.14
x2 = 0.2092 | 805.773 | 802.479 | 799.184 | 1375.7 | 1357.8 | 1340.2 | 18.81 | 15.26 | 12.34
x2 = 0.2648 | 806.107 | 802.799 | 799.487 | 1374.2 | 1356.4 | 1338.7 | 17.88 | 14.5 | 11.73
x2 = 0.3404 | 806.637 | 803.312 | 799.989 | 1372.4 | 1354.5 | 1336.8 | 16.97 | 13.74 | 11.13
x2 = 0.398 | 807.105 | 803.775 | 800.439 | 1370.8 | 1352.9 | 1335.3 | 16.38 | 13.24 | 10.72
x2 = 0.4799 | 807.875 | 804.507 | 801.188 | 1368.6 | 1350.7 | 1333.1 | 15.42 | 12.45 | 10.12
x2 = 0.5974 | 809.279 | 805.92 | 802.536 | 1364.9 | 1347.1 | 1329.5 | 13.55 | 11.01 | 9.007
x2 = 0.6988 | 810.937 | 807.538 | 804.116 | 1361.3 | 1343.7 | 1326.1 | 11.51 | 9.441 | 7.786
x2 = 0.8079 | 813.477 | 810.008 | 806.567 | 1356.9 | 1339.5 | 1322.1 | 9.294 | 7.693 | 6.416
x2 = 0.8519 | 814.812 | 811.352 | 807.925 | 1355.2 | 1337.8 | 1320.4 | 8.533 | 7.093 | 5.937
x2 = 0.8942 | 816.384 | 812.92 | 809.463 | 1353.2 | 1335.9 | 1318.7 | 7.963 | 6.624 | 5.572
x2 = 0.9474 | 818.773 | 815.429 | 811.955 | 1350.6 | 1333.5 | 1316.4 | 7.526 | 6.288 | 5.31

CCCCCCCCCCCCCCCC [hexadecane] + CCCCCCCCO
Settings | mass density, 293.15 K [kg/m3] | mass density, 303.15 K [kg/m3] | mass density, 308.15 K [kg/m3] | speed of sound, 293.15 K [m/s] | speed of sound, 303.15 K [m/s] | speed of sound, 308.15 K [m/s] | viscosity, 298.15 K [mPa·s] | viscosity, 303.15 K [mPa·s] | viscosity, 308.15 K [mPa·s]
x2 = 0 | 770.456 | 766.981 | 763.52 | 1338.6 | 1320 | 1301.7 | 3.041 | 2.706 | 2.409
x2 = 0.0461 | 771.581 | 768.09 | 764.586 | 1337 | 1318.4 | 1299.9 | 3.073 | 2.748 | 2.402
x2 = 0.1039 | 773.103 | 769.605 | 766.078 | 1335.7 | 1317.1 | 1298.7 | 3.089 | 2.741 | 2.399
x2 = 0.1547 | 774.574 | 771.039 | 767.495 | 1334.7 | 1316.1 | 1297.7 | 3.096 | 2.728 | 2.406
x2 = 0.1944 | 775.766 | 772.218 | 768.68 | 1334.3 | 1315.8 | 1297.4 | 3.107 | 2.728 | 2.419
x2 = 0.2685 | 778.197 | 774.63 | 771.077 | 1333.7 | 1315.3 | 1296.9 | 3.175 | 2.773 | 2.473
x2 = 0.3383 | 780.693 | 777.145 | 773.575 | 1333.5 | 1315.1 | 1296.8 | 3.29 | 2.881 | 2.561
x2 = 0.4099 | 783.479 | 779.937 | 776.383 | 1333.3 | 1314.9 | 1296.8 | 3.472 | 3.041 | 2.688
x2 = 0.4981 | 787.31 | 783.781 | 780.228 | 1333.5 | 1315.3 | 1297.2 | 3.768 | 3.307 | 2.896
x2 = 0.6017 | 792.441 | 788.911 | 785.346 | 1334.2 | 1316.2 | 1298.4 | 4.223 | 3.681 | 3.218
x2 = 0.6927 | 797.621 | 794.075 | 790.488 | 1335.8 | 1317.9 | 1300.2 | 4.714 | 4.086 | 3.554
x2 = 0.7963 | 804.426 | 800.846 | 797.284 | 1338.5 | 1320.9 | 1303.4 | 5.384 | 4.663 | 4.008
x2 = 0.8445 | 808.003 | 804.438 | 800.882 | 1340.1 | 1322.6 | 1305.3 | 5.757 | 4.992 | 4.251
x2 = 0.895 | 812.077 | 808.561 | 805.017 | 1342.2 | 1324.9 | 1307.8 | 6.219 | 5.383 | 4.54
x2 = 0.9529 | 817.221 | 813.871 | 810.331 | 1344.9 | 1327.9 | 1310.9 | 6.86 | 5.883 | 4.944

CCCCCCCCO [octan-1-ol] + CC(C)CCCC(C)CCCC(C)CCCCC(C)CCCC(C)CCCC(C)C
x1 = 1
Settings | mass density [kg/m3] | speed of sound [m/s] | viscosity [mPa·s]
293.15 K | 821.813 | 1348 | –
298.15 K | – | – | 7.506
303.15 K | 818.796 | 1330.8 | 6.344
308.15 K | 815.286 | 1314.1 | 5.363

CCCCCCCCO [octan-1-ol] + CCCCCCCCCCCCCCCC
x1 = 1
Settings | mass density [kg/m3] | speed of sound [m/s] | viscosity [mPa·s]
293.15 K | 821.813 | 1348 | –
298.15 K | – | – | 7.508
303.15 K | 818.796 | 1330.8 | 6.344
308.15 K | 815.286 | 1314.1 | 5.363
